Test system: complement binding to the sheep erythrocyte targets
Experiment: standard assay of inhibition of complement binding (Miletic et al): sheep erythrocytes sensitized with rabbit antibody, C8D human serum
Assay type: biochemical
Source text: In addition to the peptides and derivatives described above, the invention also relates to mimetics of the peptides that have the above-described complement blocking function. The mimetics can be identified using protocols available in the art, including those described by Miletic et al, J. Immunology 156:749 (1996)) which are based on the binding of complement to antibody-sensitized red blood cells and on the binding of complement to solid phase immune complexes. As described below, these protocols can be used to identify complement-blocking peptides and derivatives as well.
Peptides, derivatives and mimetics that block complement function can be identified by incubating a target for an active complement protein, for example, antibody-coated particles (e.g., antibody-sensitized red blood cells) or immune complexes (e.g., bovine serum albumin-anti-bovine serum complexes) bound to a solid support, with the a complement protein or a complement activating system (e.g., containing C3 or C4 or mixtures of complement proteins such as found in serum (e.g., C8 or C9 deficient serum)), in the presence and in the absence of the test agent (peptide, derivative or mimetic). […] The amount of binding can be determined using any of a variety of approaches, including using radiolabeled anti-complement protein IgG. […]

Sequence: WESNGQPENN
- activity in inhibiting complement binding (IgG fragments and peptides isolated from digests): highly active
- activity in complement inhibition (synthesized peptides): highly active
